# According to PubChem BioAssay (NCI):
#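 Dose response: 5 concentrations. Exposure: 48 h. Format: 96-well plates. Endpoint: linear interpolation; highest concentration if not reached. TGI marks complete inhibition of growth.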
# Columns and labels:
# Experiment in all cases: NCI tumour cell line growth inhibition, 48 h
# [1] = system: LXFL 529 NSCLC
# [2] = system: P388/ADR leukemia
# [3] = system: MDA-MB-231 breast
# [4] = system: MDA-N
# [5] = system: DU-145 prostate
# [6] = system: BT-549 breast
# [7] = system: T-47D breast
# [8] = system: HS 578T breast
# [9] = system: PC-3 prostate
# [10] = system: MDA-MB-435
smiles,measurement,setting,value
O=C(OCc1ccccc1)C(Cc1ccccc1)N(Cc1ccccc1)Cc1ccccc1 (configuration not stated),TGI,[1],> 100 µM
O=[N+]([O-])c1ccc(C2=Nc3ccccc3SC(c3ccccc3)C2)cc1 (configuration not stated),TGI,[1],34.8 µM
CCCCC#CS(=O)(=O)C(F)(F)F,TGI,[2],> 100 µM
O=C(c1ccco1)C1CC(c2c(O)ccc3ccccc23)=NN1 (configuration not stated),TGI,[3],37.3 µM
same,TGI,[4],36.4 µM
same,TGI,[5],30.8 µM
same,TGI,[6],31 µM
same,TGI,[7],50.5 µM
same,TGI,[8],46.3 µM
same,TGI,[9],21.1 µM
same,TGI,[10],22.4 µM
CC1(C)OC2CC(=O)OCC23C1CC(=O)C1(C)C3CCC2(C)C(c3ccoc3)OC(=O)C3OC321 (configuration not stated),TGI,[2],> 125 µM
